Assays:
Test in all cases: Enzyme kinetic assay
Procathepsin L = biological target: T1, Procathepsin L (Mus musculus, UniProt P06797); details: pH 6.25; 25 °C
T1 sequence (P06797 whole entry): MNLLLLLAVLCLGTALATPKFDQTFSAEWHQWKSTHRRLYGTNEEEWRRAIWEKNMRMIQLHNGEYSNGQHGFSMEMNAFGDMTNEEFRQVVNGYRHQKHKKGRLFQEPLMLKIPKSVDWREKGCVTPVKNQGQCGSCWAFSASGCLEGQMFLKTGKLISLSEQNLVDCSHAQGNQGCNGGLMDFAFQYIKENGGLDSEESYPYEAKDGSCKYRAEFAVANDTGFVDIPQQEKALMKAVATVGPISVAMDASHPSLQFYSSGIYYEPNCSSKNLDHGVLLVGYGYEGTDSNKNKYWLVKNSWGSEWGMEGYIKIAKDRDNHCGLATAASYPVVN
Procedure: (§1) IC50 measurements and enzyme kinetics assays were performed on a Spectramax M5 fluorescent plate reader (Molecular Devices).

Cathepsin B = Cathepsin B (Mus musculus, UniProt P10605); details: pH 6.25; 25 °C
Cathepsin B, sequence (P10605 whole entry): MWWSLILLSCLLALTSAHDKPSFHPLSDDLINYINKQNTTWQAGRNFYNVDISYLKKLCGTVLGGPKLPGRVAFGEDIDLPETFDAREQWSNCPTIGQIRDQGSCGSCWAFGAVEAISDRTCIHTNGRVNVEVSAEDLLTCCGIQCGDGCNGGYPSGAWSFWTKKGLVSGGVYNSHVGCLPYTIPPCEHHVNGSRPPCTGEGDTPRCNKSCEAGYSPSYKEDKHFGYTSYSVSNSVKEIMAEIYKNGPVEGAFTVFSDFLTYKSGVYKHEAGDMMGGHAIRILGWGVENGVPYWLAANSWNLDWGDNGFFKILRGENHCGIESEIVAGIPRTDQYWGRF
Procedure: as §1

Caspase-3 = biological target: T2, Caspase-3 (Mus musculus, UniProt P70677); details: pH 7.4; 25 °C
T2 sequence (P70677 whole entry): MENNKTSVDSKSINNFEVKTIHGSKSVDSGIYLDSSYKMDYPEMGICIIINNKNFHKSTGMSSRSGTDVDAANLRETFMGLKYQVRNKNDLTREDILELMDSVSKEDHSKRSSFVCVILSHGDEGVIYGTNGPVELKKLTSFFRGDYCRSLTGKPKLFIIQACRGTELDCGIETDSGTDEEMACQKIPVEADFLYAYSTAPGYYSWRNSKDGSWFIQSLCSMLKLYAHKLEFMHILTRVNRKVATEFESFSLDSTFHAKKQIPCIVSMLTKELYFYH
Procedure: as §1

Legumain = biological target: T3, Legumain (Mus musculus, UniProt O89017); details: pH 5.8; 25 °C
T3 sequence (O89017 whole entry): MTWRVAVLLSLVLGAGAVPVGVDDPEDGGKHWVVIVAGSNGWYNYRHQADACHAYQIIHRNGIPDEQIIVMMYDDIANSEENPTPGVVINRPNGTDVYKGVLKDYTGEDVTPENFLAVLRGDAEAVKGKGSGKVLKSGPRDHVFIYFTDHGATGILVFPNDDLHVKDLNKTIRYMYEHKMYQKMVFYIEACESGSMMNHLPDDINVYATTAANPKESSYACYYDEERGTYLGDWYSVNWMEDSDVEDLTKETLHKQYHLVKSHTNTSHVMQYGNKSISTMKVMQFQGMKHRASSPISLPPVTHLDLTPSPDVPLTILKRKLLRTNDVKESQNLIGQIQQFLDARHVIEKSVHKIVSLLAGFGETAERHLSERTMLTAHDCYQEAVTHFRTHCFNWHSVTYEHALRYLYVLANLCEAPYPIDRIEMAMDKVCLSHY
Procedure: as §1

IC50 (Procathepsin L) [µM]	IC50 (Cathepsin B) [µM]	IC50 (Caspase-3) [µM]	IC50 (Legumain) [µM]	Structure (SMILES)
2.98	0.78	–	–	CCOC(=O)[C@H]1O[C@@H]1C(=O)N[C@H](C(=O)NCCc1ccc(O)cc1)C(C)CC (stereo partly specified) [CID644294]
220	390	890	0.0115	CCOC(=O)[C@H]1O[C@@H]1C(=O)N(CC(N)=O)NC(=O)[C@@H]1CCCN1C(C)=O [LI-1]

Source: BindingDB's records for doi:10.1021/cb900232a (Stanford University, 2010)
